# Data reported in publication PMC7551932 (Toxins, 2020).
# “Also recorded” adds a separate entry of the source. Where a SMILES comes first, the peptide text is derived from it. Bridges are numbered along the chain shown (N, C = ends). Where no end group is shown, it is not given here.
# What was measured:
# rNaV1.2 = target: T1, rNaV1.2 (Rattus norvegicus, UniProt P04775); experiment: cell-based; type: cell-based
# T1 construct: expressed in transfected cells; host or cells: HEK293T
# rNaV1.3 = target: T2, rNaV1.3 (Rattus norvegicus, UniProt P08104); experiment: cell-based; type: cell-based
# T2 construct: expressed in transfected cells; host or cells: HEK293T
# rNaV1.4 = target: T3, rNaV1.4 (Rattus norvegicus, UniProt P15390); experiment: cell-based; type: cell-based
# T3 construct: expressed in transfected cells; host or cells: HEK293T
# mNaV1.6 = target: T4, mNaV1.6 (Mus musculus, UniProt Q9WTU3); experiment: cell-based; type: cell-based
# T4 construct: expressed in transfected cells; host or cells: HEK293T
# hNaV1.7 = target: T5, hNaV1.7 (Homo sapiens, UniProt Q15858); experiment: cell-based; type: cell-based
# T5 construct: expressed in transfected cells; host or cells: HEK293T
# hNaV1.5 = type: cell-based, human
# rNaV1.8 = type: cell-based, rat
# hNaV1.9 = type: cell-based, human
# [1] = system: TTX-S sodium channels (NaV1.2–1.4, NaV1.6, and NaV1.7); type: cell-based
# [2] = system: TTX-R sodium channels (NaV1.5, NaV1.8, and NaV1.9); type: cell-based
# NaV1.7 over NaV1.4 = experiment: Selectivity of NaV1.7 over NaV1.4; type: cell-based; conditions: Cl6a
# NaV1.7 [3] = target: T6, NaV1.7 (Homo sapiens, UniProt Q15858); experiment: Time course of block and washout of NaV1.7 peak current; conditions: 100 nM toxin, n = 3
# NaV1.7 [4] = target: T6, NaV1.7; experiment: NaV1.7 gating kinetics (I–V, activation, inactivation, repriming); conditions: 10 nM toxin; for Reduction of NaV1.7 channel current: at –5 mV, n = 10
# N-type calcium channels = conditions: cited from earlier work
# [5] = system: TTX-sensitive sodium channel; conditions: cited from earlier work
# NaV1.7 [6] = conditions: cited from earlier work
# T6 sequence (Q07699 19-218): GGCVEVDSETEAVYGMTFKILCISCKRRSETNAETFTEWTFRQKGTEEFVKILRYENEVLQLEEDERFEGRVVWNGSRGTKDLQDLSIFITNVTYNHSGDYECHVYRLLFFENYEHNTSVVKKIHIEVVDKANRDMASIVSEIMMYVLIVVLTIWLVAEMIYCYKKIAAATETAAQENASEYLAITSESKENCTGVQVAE
# T6 sequence (Q15858 other isoform, or with tags, fused parts or gaps): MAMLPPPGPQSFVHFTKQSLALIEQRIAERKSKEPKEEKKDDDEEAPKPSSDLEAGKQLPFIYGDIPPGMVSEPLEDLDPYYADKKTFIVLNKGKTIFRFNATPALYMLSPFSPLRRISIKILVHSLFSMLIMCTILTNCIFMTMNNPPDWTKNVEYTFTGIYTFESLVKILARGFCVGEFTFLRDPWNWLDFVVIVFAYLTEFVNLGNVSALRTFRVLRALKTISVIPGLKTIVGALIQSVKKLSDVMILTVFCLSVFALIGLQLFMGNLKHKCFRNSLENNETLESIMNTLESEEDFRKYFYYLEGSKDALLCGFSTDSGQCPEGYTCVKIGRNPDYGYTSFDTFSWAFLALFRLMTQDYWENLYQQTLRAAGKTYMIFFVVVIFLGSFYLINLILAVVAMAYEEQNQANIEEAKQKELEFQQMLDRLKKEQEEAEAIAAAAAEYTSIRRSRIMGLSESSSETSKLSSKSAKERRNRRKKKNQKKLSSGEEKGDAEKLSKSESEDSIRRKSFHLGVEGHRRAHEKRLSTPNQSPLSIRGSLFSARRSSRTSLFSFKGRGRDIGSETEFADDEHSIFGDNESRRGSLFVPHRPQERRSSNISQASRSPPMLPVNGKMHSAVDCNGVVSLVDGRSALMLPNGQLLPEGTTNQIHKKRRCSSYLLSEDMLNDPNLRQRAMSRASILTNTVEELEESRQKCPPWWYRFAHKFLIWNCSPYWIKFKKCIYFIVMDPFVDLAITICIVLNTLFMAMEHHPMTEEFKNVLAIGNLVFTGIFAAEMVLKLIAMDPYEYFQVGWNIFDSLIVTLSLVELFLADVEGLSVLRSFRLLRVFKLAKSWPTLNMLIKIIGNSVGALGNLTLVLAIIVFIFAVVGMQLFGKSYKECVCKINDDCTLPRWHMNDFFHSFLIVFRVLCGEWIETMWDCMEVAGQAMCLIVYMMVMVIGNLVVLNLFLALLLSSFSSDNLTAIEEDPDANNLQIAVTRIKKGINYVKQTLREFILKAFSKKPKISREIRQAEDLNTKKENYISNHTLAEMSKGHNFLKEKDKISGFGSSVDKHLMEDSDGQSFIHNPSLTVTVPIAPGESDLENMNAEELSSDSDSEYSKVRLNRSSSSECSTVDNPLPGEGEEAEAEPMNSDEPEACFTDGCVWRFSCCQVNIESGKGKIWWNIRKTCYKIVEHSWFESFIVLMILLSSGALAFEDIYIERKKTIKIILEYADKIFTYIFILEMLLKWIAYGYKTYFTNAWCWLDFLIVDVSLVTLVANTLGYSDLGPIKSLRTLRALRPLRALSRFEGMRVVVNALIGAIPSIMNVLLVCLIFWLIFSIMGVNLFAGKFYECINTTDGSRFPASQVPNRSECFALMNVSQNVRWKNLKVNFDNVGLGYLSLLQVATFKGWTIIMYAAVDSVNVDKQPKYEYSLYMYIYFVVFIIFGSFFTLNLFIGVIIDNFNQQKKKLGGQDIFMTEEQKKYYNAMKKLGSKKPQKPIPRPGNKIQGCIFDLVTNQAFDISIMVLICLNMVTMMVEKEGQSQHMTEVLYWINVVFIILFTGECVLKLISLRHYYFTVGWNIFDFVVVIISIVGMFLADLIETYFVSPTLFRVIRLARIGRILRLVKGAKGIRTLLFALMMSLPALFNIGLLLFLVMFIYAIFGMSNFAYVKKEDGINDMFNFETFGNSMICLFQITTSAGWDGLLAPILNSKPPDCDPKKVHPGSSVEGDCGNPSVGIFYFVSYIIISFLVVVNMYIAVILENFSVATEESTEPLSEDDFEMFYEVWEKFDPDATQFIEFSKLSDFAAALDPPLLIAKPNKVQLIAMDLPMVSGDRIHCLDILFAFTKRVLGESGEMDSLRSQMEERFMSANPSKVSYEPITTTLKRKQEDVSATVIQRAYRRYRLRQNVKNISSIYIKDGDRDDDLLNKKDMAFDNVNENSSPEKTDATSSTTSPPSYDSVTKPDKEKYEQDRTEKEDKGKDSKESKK
# T6 sequence (O60939 30-215, further chain): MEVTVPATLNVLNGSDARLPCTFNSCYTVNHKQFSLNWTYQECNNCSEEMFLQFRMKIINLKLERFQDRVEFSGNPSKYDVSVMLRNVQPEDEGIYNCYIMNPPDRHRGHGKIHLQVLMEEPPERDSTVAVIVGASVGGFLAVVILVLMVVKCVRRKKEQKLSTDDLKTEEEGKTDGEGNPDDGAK
# T4 sequence (Q9WTU3 whole entry): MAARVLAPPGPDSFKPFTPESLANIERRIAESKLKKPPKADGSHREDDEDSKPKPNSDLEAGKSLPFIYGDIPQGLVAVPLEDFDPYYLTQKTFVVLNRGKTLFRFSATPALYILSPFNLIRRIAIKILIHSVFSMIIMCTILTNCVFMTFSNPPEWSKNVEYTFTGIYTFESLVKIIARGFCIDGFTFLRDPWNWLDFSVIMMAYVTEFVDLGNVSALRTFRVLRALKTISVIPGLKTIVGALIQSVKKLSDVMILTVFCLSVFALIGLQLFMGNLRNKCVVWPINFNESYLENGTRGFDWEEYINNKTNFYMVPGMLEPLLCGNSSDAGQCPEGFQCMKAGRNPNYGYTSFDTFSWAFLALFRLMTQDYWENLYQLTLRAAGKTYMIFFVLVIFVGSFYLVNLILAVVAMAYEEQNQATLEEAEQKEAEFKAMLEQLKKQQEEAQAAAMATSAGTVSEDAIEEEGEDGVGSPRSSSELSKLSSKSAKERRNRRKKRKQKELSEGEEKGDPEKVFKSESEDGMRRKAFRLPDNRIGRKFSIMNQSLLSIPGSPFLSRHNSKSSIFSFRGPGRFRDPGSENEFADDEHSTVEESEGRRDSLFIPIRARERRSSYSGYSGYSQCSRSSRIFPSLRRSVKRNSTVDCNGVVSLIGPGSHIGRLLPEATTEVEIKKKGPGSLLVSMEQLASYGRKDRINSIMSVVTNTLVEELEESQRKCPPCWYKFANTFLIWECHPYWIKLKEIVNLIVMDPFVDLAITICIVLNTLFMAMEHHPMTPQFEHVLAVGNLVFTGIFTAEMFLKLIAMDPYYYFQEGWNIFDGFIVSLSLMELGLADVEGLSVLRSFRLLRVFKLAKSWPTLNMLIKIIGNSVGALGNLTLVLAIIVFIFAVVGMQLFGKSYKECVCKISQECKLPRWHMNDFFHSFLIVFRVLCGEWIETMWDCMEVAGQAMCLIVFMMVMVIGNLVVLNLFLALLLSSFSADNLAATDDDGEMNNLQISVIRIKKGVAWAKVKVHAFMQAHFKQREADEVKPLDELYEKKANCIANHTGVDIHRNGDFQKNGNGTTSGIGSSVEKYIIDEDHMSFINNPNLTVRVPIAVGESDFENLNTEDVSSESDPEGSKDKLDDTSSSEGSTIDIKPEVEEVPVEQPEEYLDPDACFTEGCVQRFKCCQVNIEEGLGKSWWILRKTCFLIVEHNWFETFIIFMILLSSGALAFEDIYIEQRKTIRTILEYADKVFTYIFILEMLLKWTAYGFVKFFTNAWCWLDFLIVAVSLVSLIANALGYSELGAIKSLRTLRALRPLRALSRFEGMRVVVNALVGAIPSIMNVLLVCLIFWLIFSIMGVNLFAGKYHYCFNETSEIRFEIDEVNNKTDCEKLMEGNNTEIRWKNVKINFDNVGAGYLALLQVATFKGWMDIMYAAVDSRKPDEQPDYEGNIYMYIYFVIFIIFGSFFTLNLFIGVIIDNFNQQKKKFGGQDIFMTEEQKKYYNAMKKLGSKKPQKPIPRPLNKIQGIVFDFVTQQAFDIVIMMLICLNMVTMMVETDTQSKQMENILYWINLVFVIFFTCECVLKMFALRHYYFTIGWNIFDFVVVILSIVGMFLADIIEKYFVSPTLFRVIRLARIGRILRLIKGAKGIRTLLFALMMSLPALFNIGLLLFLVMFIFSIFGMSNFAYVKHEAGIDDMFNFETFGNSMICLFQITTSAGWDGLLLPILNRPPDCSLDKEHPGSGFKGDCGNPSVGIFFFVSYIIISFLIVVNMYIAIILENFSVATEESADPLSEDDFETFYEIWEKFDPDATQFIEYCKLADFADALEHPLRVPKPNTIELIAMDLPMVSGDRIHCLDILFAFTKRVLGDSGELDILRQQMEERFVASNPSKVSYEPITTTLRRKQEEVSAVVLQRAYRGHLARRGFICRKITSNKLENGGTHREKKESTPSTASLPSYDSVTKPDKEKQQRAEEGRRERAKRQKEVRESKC
# T5 sequence (Q15858 other isoform, or with tags, fused parts or gaps): as the sequence (Q15858 other isoform, or with tags, fused parts or gaps) above
# T5 sequence (O60939 30-215, further chain): as the sequence (O60939 30-215, further chain) above
# T5 sequence (Q07699 19-218, further chain): as the sequence (Q07699 19-218) above
compound,measurement,setting,value
"CC[C@H](C)[C@H](NC(=O)[C@H](CCCCN)NC(=O)[C@H](Cc1c[nH]c2ccccc12)NC(=O)[C@H](CCCCN)NC(=O)[C@@H]1CSSC[C@@H]2NC(=O)[C@H](CCC(=O)O)NC(=O)[C@H](CC(N)=O)NC(=O)[C@H](CCCCN)NC(=O)CNC(=O)[C@@H]3CCCN3C(=O)[C@H]([C@@H](C)O)NC(=O)[C@@H]3CSSC[C@H](NC(=O)[C@H](C(C)C)NC(=O)[C@H](CCCNC(=N)N)NC(=O)[C@H](CC(N)=O)NC(=O)[C@@H]4CCCN4C(=O)[C@H](CSSC[C@H](NC(=O)[C@H](C)N)C(=O)N[C@@H](CCCCN)C(=O)NCC(=O)N[C@@H](C(C)C)C(=O)N[C@@H](Cc4ccccc4)C(=O)N[C@@H](CC(=O)O)C(=O)N4CCC[C@H]4C(=O)N3)NC2=O)C(=O)N[C@@H](CO)C(=O)N[C@@H](CC(=O)O)C(=O)N[C@@H](CCCCN)C(=O)N[C@@H](Cc2c[nH]cn2)C(=O)N[C@@H](CCCCN)C(=O)N[C@@H](Cc2c[nH]c3ccccc23)C(=O)N1)C(=O)O [Cl6a] (H-ACKGVFDPCTPGKNECCPNRVCSDKHKWCKWKI-OH; disulfide 2-17, 9-22, 16-29; N-terminus and C-terminus assumed)",IC50,rNaV1.2,56.1 ± 13.6 nM
same,Inhibition of rNaV1.2 current,rNaV1.2,decreased
same,IC50,rNaV1.3,75.9 ± 6.3 nM
same,Inhibition of rNaV1.3 current,rNaV1.3,decreased
same,IC50,rNaV1.4,480 ± 100 nM
same,Inhibition of rNaV1.4 current,rNaV1.4,decreased
same,IC50,mNaV1.6,9.2 ± 1.3 nM
same,Inhibition of mNaV1.6 current,mNaV1.6,completely inhibited
same,IC50,hNaV1.7,11 ± 2.5 nM
same,Inhibition of hNaV1.7 current,hNaV1.7,completely inhibited
same,Inhibition of hNaV1.5 current,hNaV1.5,No inhibitory effects
same,Inhibition of rNaV1.8 current,rNaV1.8,No inhibitory effects
same,Inhibition of hNaV1.9 current,hNaV1.9,No inhibitory effects
same,Inhibition of TTX-S sodium channels,[1],"can inhibit TTX-S, but not TTX-R, sodium channels; also recorded: inhibitors of tetrodotoxin-sensitive (TTX-S), but not TTX-resistant, sodium channels; also recorded: inhibited TTX-S (NaV1.2–1.4, NaV1.6, and NaV1.7)"
same,Inhibition of TTX-R sodium channels,[2],"not TTX-R (NaV1.5, NaV1.8, and NaV1.9)"
same,Fold selectivity over NaV1.4,NaV1.7 over NaV1.4,~ 40 fold
same,Reversibility of NaV1.7 inhibition on washing,NaV1.7 [3]; 5 min wash with bath solution,irreversibly inhibit NaV1.7 channel currents; also recorded: irreversible; also recorded: sustained inhibition of NaV1.7 channel currents
same,τon (onset of NaV1.7 peak current inhibition),NaV1.7 [3]; mean ± SEM,36.2 ± 5.3 s
same,"Voltage dependence of activation, k (toxin)","NaV1.7 [4]; NaV1.7, mean ± SEM, n = 6–10, control 6.2 ± 0.3 (Cl6a), 6.7 ± 0.4 (Cl6b)",7.3 ± 0.4 mV
same,"Voltage dependence of inactivation, k (toxin)","NaV1.7 [4]; NaV1.7, mean ± SEM, n = 6–10, control −5.4 ± 0.3 (Cl6a), −5.2 ± 0.3 (Cl6b)",−5.7 ± 0.4 mV
same,"Voltage dependence of activation, V1/2 (toxin)","NaV1.7 [4]; NaV1.7, mean ± SEM, n = 6–10, control −19.5 ± 1.5 (Cl6a), −16.3 ± 0.4 (Cl6b)",−22.3 ± 1.7 mV
same,"Voltage dependence of inactivation, V1/2 (toxin)","NaV1.7 [4]; NaV1.7, mean ± SEM, n = 6–10, control −78.3 ± 1.8 (Cl6a), −70.1 ± 1.5 (Cl6b)",−81.6 ± 2.4 mV
same,Repriming (toxin),"NaV1.7 [4]; NaV1.7, recovery at −100 mV, test pulse −10 mV, mean ± SEM, n = 9 (Cl6a), n = 7 (Cl6b), control 14.9 ± 2.4 (Cl6a), 6.3 ± 0.9 (Cl6b)",17.6 ± 2.5 ms
same,Reduction of NaV1.7 channel current,NaV1.7 [4],52.3%
same,Effect on NaV1.7 activation and inactivation (gating),NaV1.7 [4]; n = 6–10,"does not alter channel activation, inactivation, or repriming kinetics; also recorded: cannot significantly change the activation kinetics"
"CC[C@H](C)[C@H](NC(=O)[C@H](CCCCN)NC(=O)[C@H](Cc1ccc(O)cc1)NC(=O)[C@H](CCCCN)NC(=O)[C@@H]1CSSC[C@@H]2NC(=O)[C@H](CCC(=O)O)NC(=O)[C@H](CC(=O)O)NC(=O)[C@H](CCCCN)NC(=O)CNC(=O)[C@@H]3CCCN3C(=O)[C@H]([C@@H](C)O)NC(=O)[C@@H]3CSSC[C@H](NC(=O)[C@H](C(C)C)NC(=O)[C@H](Cc4c[nH]cn4)NC(=O)[C@H](CC(N)=O)NC(=O)[C@@H]4CCCN4C(=O)[C@H](CSSC[C@H](NC(=O)[C@H](C)N)C(=O)N[C@@H](CCCCN)C(=O)NCC(=O)N[C@@H]([C@@H](C)CC)C(=O)N[C@@H](Cc4ccccc4)C(=O)N[C@@H](C(C)C)C(=O)N[C@@H]([C@@H](C)O)C(=O)N3)NC2=O)C(=O)N[C@@H](CO)C(=O)N[C@@H](CO)C(=O)N[C@@H](CCCCN)C(=O)N[C@@H](Cc2c[nH]cn2)C(=O)N[C@@H](CCCCN)C(=O)N[C@@H](Cc2c[nH]c3ccccc23)C(=O)N1)C(=O)O [Cl6b] (H-ACKGIFVTCTPGKDECCPNHVCSSKHKWCKYKI-OH; disulfide 2-17, 9-22, 16-29)",Reduction of NaV1.7 channel current,NaV1.7 [4],49.7%
"HWTX-I (ACKGVFDACTPGKNECCPNRVCSDKHKWCKWKL; ends and bridges not checked; cysteine pairing not given here; UniProt P56676 49-81, looked up)",N-type calcium channel inhibition,N-type calcium channels,inhibitor of N-type calcium channels
same,TTX-sensitive sodium channel inhibition,[5],inhibitor of N-type calcium channels and a TTX-sensitive sodium channel
HWTX-IV,Binding site on NaV1.7,NaV1.7 [6],site 4 toxins that interact with the DII S3–S4 linker of NaV1.7 channels
